Measured values as given in publication PMC6748410, “A phase 2 study of an oral mTORC1/mTORC2 kinase inhibitor (CC-223) for non-pancreatic neuroendocrine tumors with or without carcinoid symptoms” (PLoS ONE, 2019).
Like-named read-outs stand apart in the source and are kept apart here.

Assays:
[1] = test system: well-differentiated NET of non-pancreatic gastrointestinal or unknown origin; test: FDG PET SUV change from baseline to day 15 of cycle 1; format: in vivo, human
Protocol: (§1) Metabolic changes were assessed by percent change in total of standardized uptake value (SUV) of 2-^18F-fluoro-2-deoxyglucose (FDG) with PET scanning from baseline to day 15 in cycle 1. Carcinoid symptoms of flushing and diarrhea were documented monthly with a non-validated symptom questionnaire that was completed at each study visit. Patients reported whether they had experienced specific events, and the severity and/or frequency of these events. Symptom improvement was defined as ≥50% reduction in frequency and/or a 1-grade reduction in severity for each from baseline.

[2] = Plasma pharmacokinetics of CC-223 and metabolite M1 in patients with NET; format: in vivo, human; conditions: for CL/F / AUC / AUC(0-t) / Cmax / Vd/F: geometric mean (%CV, n); for Tmax / AUC / AUC(0-t) / Cmax / Vd/F: human, plasma; for Vd/F: read-out: Vz/F
Protocol: Blood for PK analysis was drawn on day 1 pre-dose and for up to 48 hours post-dose, and then on day 15 up to 8 hours post-dose. Urine on day 1 was collected within 30 minutes prior to dosing and at intervals up to 24 hours post-dose. Samples were assayed for CC-223 and the principal active metabolite (M1) using validated chiral liquid chromatography mass spectrometry. CC-223 PK parameters were calculated using dosing and sample collection times. Non-compartmental PK analysis was performed used WinNonlin Enterprise version 5.2 Model 200 and Model 210 (Certara, Princeton, NJ).

[3] = test system: pAKT (mTORC2); test: Stimulated blood biomarker assay in monocytes (CD14+) for pAKT (mTORC2 inhibition); format: in vivo, human; conditions: for pAKT median inhibition from baseline: 30 mg; for Blood pAKT median inhibition: 45 mg
Protocol: (§2) Central laboratories conducted serial stimulated blood biomarker assays in monocytes (CD14+) for p4E-BP1 and pPKB (also known as pAKT) for assessment of mTORC1 and mTORC2 inhibition, respectively. Monthly changes from baseline for chromogranin A (CgA), and for other serum hormones if elevated, were assayed locally.

[4] = 28-day GLP toxicology study, rat; format: in vivo
Protocol: (§3) A dose of 7.5 mg/day is proposed as the starting dose in this protocol. This dose is based on the recommendations in the March 2010 FDA Guidance for Industry entitled, “S9 Nonclinical Evaluation for Anticancer Pharmaceuticals,” where a start dose for first administration in humans should be either one-tenth the STD10 in rodents, or one-sixth of the HNSTD if the nonrodent is the most appropriate species. The conversion factors from the July 2005 FDA Guidance for Industry entitled, “Estimating the Maximum Safe Starting Dose in Initial Clinical Trials for Therapeutics in Adult Healthy Volunteers,” were used to convert the animal dose to the HED. The dose was converted to milligrams based on a 60-kg human body weight.
(§4) Species Animal Dose HED (mg/kg) HED (mg) Safety Factor Start Dose (mg) […]
(§5) Since the dog was identified as the most sensitive species in the 28-day GLP toxicology studies, the start dose for the study would be 8.2 mg/day. Based on available dosage strengths of the IP, a dose of 7.5 mg/day of CC-223 is deemed to be an acceptable starting dose for this initial trial in […]
(§6) Part B will consist of approximately 230 patients with selected tumor types to further assess the safety profile and provide preliminary efficacy information. […]

[5] = test system: p4E-BP1 (mTORC1); test: Stimulated blood biomarker assay in monocytes (CD14+) for p4E-BP1 (mTORC1 inhibition); format: in vivo, human
Protocol: as §2

[6] = test system: serum hormones (CgA, gastrin, glucagon, serotonin); test: Serum hormone changes from baseline; format: in vivo, human; conditions: among 35 patients with elevated baseline levels in at least one hormone
Protocol: as §2
This phase 1/2 study was not powered for inferential statistics and mostly descriptive statistics were used. All patients dosed with CC-223 were included in the safety analysis. The efficacy analysis included all patients completing at least one cycle of drug who had both baseline and one post-baseline tumor efficacy assessment, unless otherwise specified. Categorical baseline variables including tumor type-specific characteristics were summarized using frequency counts and percentage. Continuous demographic and baseline characteristic variables were summarized by descriptive statistics. A Wilcoxon signed rank test was used to analyse change from baseline in serum hormone levels at selected scheduled visits.

[7] = test system: carcinoid symptoms of flushing and diarrhea; test: Carcinoid symptom questionnaire (flushing, diarrhea); format: in vivo, human
Protocol: as §1

[8] = Rat; trial protocol; cited from earlier work
[9] = parameters: method as in PMID 26177599; conditions: patients with advanced solid tumors; oral once daily; cited from earlier work
[10] = Dog; trial protocol; cited from earlier work
[11] = 28-day GLP toxicology study, dog; format: in vivo
Protocol: as §3, §4, §5, §6

[12] = po, 30 mg/day, CC-223 30 mg/day oral, Day 1
[13] = po, 30 mg/day, CC-223 30 mg/day oral, Day 15, n = 1
[14] = po, 45 mg/day, CC-223 45 mg/day oral, Day 1
[15] = across both dose level cohorts (45 mg or 30 mg), 1.5 hours after multiple dosing on day 15

## CO[C@H]1CC[C@H](N2C(=O)CNc3ncc(-c4ccc(C(C)(C)O)nc4)nc32)CC1 [CC-223]
[1]; 18 patients
  Patients with at least a 25% reduction in SUV: 38.3%
[1]; 21 patients
  Patients with at least a 15% reduction in FDG uptake: 44.7%
[1]; 31 patients, standard deviation 35.2%, P<0.0001
  Mean percent decrease from baseline to day 15 in [18F]-FDG PET SUV: 32.0%
[2]; CC-223 30 mg/day oral, Day 1
  CL/F: 34.0 (34.2, n = 3) L/h
  Vd/F: 290 L
[2]; CC-223 45 mg/day oral, Day 1
  CL/F: 19.8 (20.1, n = 2) L/h
  Vd/F: 125 L
[2]; oral, regardless of starting dose, read-out: Median Tmax
  Tmax: 1.5 to 3 h
[2]; [12]
  AUC: 0.819 µg·h/mL
  AUC(0-t): 0.84 µg·h/mL
  Cmax: 0.133 µg/mL
[2]; [13]
  AUC: 0.776 µg·h/mL
  AUC(0-t): 0.776 µg·h/mL
  Cmax: 0.154 µg/mL
[2]; po, 30 mg/day, median (min, max, n), CC-223 30 mg/day oral, Day 1, read-out: Tmax
  Tmax: 1.7 h
[2]; po, 30 mg/day, median (min, max, n), CC-223 30 mg/day oral, Day 15, read-out: Tmax
  Tmax: 1.5 h
[2]; [14]
  AUC(0-t): 1.8 µg·h/mL
  Cmax: 0.347 µg/mL
[2]; po, 45 mg/day, CC-223 45 mg/day oral, Day 1, n = 1
  AUC: 1.94 µg·h/mL
[2]; po, 45 mg/day, median (min, max, n), CC-223 45 mg/day oral, Day 1, read-out: Tmax
  Tmax: 1.52 h
[3]; after the first dose
  pAKT median inhibition from baseline: 59%
[3]; day 15 after multiple doses
  pAKT median inhibition from baseline: 79%
[3]; 1.5 hours after a single dose (day 1)
  Blood pAKT median inhibition: 83%
[3]; after multiple doses (day 15)
  Blood pAKT median inhibition: 76%
[3]; [15]
  pAKT median biomarker inhibition relative to baseline: > 70%
[4]; 60-kg human body weight
  HED (human equivalent dose) of STD10: 96 mg
[4]; FDA conversion factors
  HED (human equivalent dose) of STD10: 1.6 mg/kg
[5]; 30 mg, after multiple doses
  p4E-BP1 median inhibition: 26%
[5]; 30 mg, following a single dose
  p4E-BP1 median inhibition: 9%
[5]; 45 mg, 1.5 hours after a single dose
  p4E-BP1 median inhibition: 37%
[5]; 45 mg, after multiple doses
  p4E-BP1 median inhibition: 47%
[5]; [15]
  p4E-BP1 median biomarker inhibition relative to baseline: > 26%
[6]
  Patients with ≥50% decline from baseline in CgA: 7 patients
  Patients with ≥50% decline from baseline in gastrin: 6 patients
  Patients with ≥50% decline from baseline in glucagon: 3 patients
  Patients with ≥50% decline from baseline in serotonin: 2 patients
[7]; 5 of 13 affected patients
  Symptom reduction at any time during the study: both flushing and diarrhea: 39%
[7]; 8 of 16 affected patients
  Symptom reduction at any time during the study: flushing: 50%
[7]; 9 of 22 affected patients
  Symptom reduction at any time during the study: diarrhea: 41%
[8]
  STD10 (severely toxic dose in 10% of the animals tested): 10 mg/kg
[9]
  Maximum tolerated dose (MTD): 45 mg/day
[10]
  HNSTD (highest non-severely toxic dose): 1.5 mg/kg
[11]; 60-kg human body weight
  HED (human equivalent dose) of HNSTD: 49 mg
[11]; FDA conversion factors
  HED (human equivalent dose) of HNSTD: 0.81 mg/kg
